What was measured:
[1] = system: rat bone marrow cells; test: Bone marrow cell assay, time-lapse cell counts over 24h; format: cell-based; settings: EPL001, EPL030 at 6μM, EPL120 at 5μM final concentration, in words (Fig 6)
Description: The method has been described previously at length. Bone marrow cells, consisting of various cell types including mesenchymal stem cells and fibroblasts, were cultured from adult male rats (Rattus norvegicus, SD strain). These cells were passaged from a growing primary stock in a T75 tissue culture flask (Sarstedt) into a 48 well tissue culture plate (IWAKI), with a cell density of 1 x 10^5/ml. The cell culture media, henceforth referred to as ‘supplemented a-MEMS,’ comprised α-MEMS media supplemented with 10% FCS and 1% penicillin/streptomycin (all Life Technologies, Carlsbad, CA, US). On the day of peptide addition to the cells, the supplemented α-MEMS was gently removed and fresh supplemented α-MEMS added, with 10% test material by volume to achieve micromolar concentrations, untreated controls receiving just fresh supplemented α-MEMS. (For dose levels see legends in respective result figures) All samples were filter sterilised using a Millex-GV […] syringe filter unit (Merck, Kenilworth, NJ, USA). The cells were imaged for 24 h using an incubated Zeiss Axiovert 135M microscope with a Prior Proscan II motorised stage, at 37 °C with a 5% CO2 in air feed. Each well of the 48-well tissue culture plate was then imaged for 24h every 5 min using Metamorph software (MDS Analytical Technologies, Wokingham, UK), with each well having four fields of view. The viability and cell numbers were reviewed by analysing the images captured over the 24h period and cell counts were taken at selected time points using the Metamorph software.
Fig 6 Bone marrow cells in culture exposed to long peptides. Cells were counted over 24h after exposure to the 14mer peptide EPL001 or its scrambled-sequence control EPL030 at 6μM final concentration or to the 20mer EPL120 at 5μM final concentration, compared to peptide-untreated controls.
Fig 7 Bone marrow cells in culture exposed to hexapeptides. Cells were counted over 24h after exposure to either EPL016 (= MKPLTG, the ‘Front 6’ of the 14mer EPL001) or EPL036 (= IEPVFT, the ‘Back 6’ of EPL030, the scrambled-sequence control of EPL001) at 1μM final concentration, compared to peptide-untreated controls.

[2] = system: circulating levels of the anterior pituitary hormones LH, GH and PRL; test: Intracerebroventricular infusion in sheep, RIA of circulating pituitary hormones; format: in vivo, Ovis aries; settings: for GH, percentage difference between After and Before / LH, percentage difference between After and Before / PRL, percentage difference between After and Before: ICV 100 μg/h for 24h; for GH, After / LH, After / PRL, After: last 6h of ICV infusion, 100 μg/h for 24h, one sheep, RIA, mean +/− SEM
Description: A sheep study involved randomly selected Corriedale ewes (Ovis aries) of typically 5–6 years of age maintained under natural conditions at the Monash University Sheep Facility, Werribee, Victoria, Australia. EPL001 and EPL030 were subject to intracerebroventricular (ICV) infusion separately in vivo via a permanent cannula into the third ventricle of the brains of one sheep each at 100 μg/h for 24h. The zone that forms the floor of the third ventricle is that part of the hypothalamus called the median eminence. This is the anatomical interface between the brain and the anterior pituitary. Immunostaining in the ovine median eminence, in the form of axonal beading, has been reported with an anti-EPL001 antibody. The aim here was to evaluate the impact on the ovine hypothalamic-pituitary axis of infusion from above the hypothalamus. Circulating levels of the anterior pituitary hormones LH (luteinising hormone), GH (growth hormone) and PRL (prolactin) were measured by radioimmunoassay (RIA) prior to and in the closing stages of infusion. Systemic blood samples from an indwelling jugular venous cannula were taken at 10 min intervals for 6h prior to infusion (‘Before’) and over the last 6h of infusion (‘After’).

[3] = system: MCF-7 human breast adenocarcinoma xenografts; test: MCF-7 xenograft study with untreated control (second study); format: in vivo, nude mice; settings: for Tumour growth delay compared to controls: in words; for Max % weight loss / Median RTV2 / Growth delay: second study; for Max % weight loss: 100mg/kg/day i.p.; for Median RTV2: 100mg/kg/day i.p. days 0-17, n=8; for Growth delay: vs untreated control
Description: The MCF-7 human breast adenocarcinoma model was selected for xenograft studies. […] An oestrogen pellet was implanted subcutaneously in the dorsal area 24 hours prior to 2-3mm^3 fragments of MCF-7 tumour taken from donor tumours transplanted subcutaneously in the abdominal flanks of the efficacy study mice. Once tumour volumes reached approximately 32 mm^3 (as measured by calipers, designated treatment Day 0) mice were randomised into one of three groups (n = 8) as follows: EPL001 or EPL030 at 100 mg/kg/day administered i.p. on […], plus a peptide-untreated (PBS only) control group. Tumour volume, using calipers, and animal body weight were recorded throughout the experiment and normalised to the respective tumour volume on the initial day of treatment (Day 0). Mann-Whitney U tests were conducted to determine the statistical significance of any differences in growth rate (based on tumour volume doubling time) between control and treated groups.
(§1) The MCF-7 human breast adenocarcinoma model was selected for two xenograft studies. An oestrogen pellet was implanted subcutaneously in the dorsal area 24 hours prior to 2-3mm^3 fragments of MCF-7 tumour taken from donor tumours transplanted subcutaneously in the abdominal flanks of the efficacy study mice. Once tumour volumes reached approximately 32 mm^3 (as measured by calipers, designated treatment day 0) mice were randomised into treatment groups (n=8).
In the second study three groups were used as follows: EPL001 or EPL030 at 100mg/kg/day administered i.p. on days 0-17, plus an untreated control group.
(§2) Tumour volume, using calipers, and animal body weight were recorded throughout the experiment and normalised to the respective volume on the initial day of treatment (day 0). Mann-Whitney U tests were conducted to determine the statistical significance of any differences in growth rate (based on tumour volume doubling time) between control and treated groups.

[4] = system: MCF-7 human breast adenocarcinoma xenografts; test: MCF-7 xenograft precursor study (first study); format: in vivo, nude mice; settings: for Max % weight loss: 100mg/kg/day i.p.; for Median RTV2: 100mg/kg/day i.p. on 15 days between days 0 and 20, n=8
Description: as §1
In the first study four groups were used as follows: EPL001 or EPL030 at 100mg/kg/day administered i.p. on days 0, 1, 4, 5, 6, 7, 8, 11, 12, 13, 14, 15, 18, 19 and 20, plus a mouse anti-EPL001 monoclonal antibody or a control antibody directed at mouse haemocytes at 4mg/kg/day administered i.p. on days 0, 1, 2, 3, 4, 7, 8, 9, 10, 11, 14, 15, 16, 17 and 18 .
as §2

[5] = system: Caenorhabditis elegans; settings: 1μM per day into the aqueous medium; cited from earlier work
Source text: As a control compound there was synthesized EPL030, having the aa sequence KLKMNGKNIEPVFT. This is a scrambling of EPL001’s sequence, based on cards drawn at random by one of us (CRM). […] The figures for fecundity were EPL001 +43 ... || Returning to EPL030, the scrambled-sequence EPL001 comparator, this has engendered perplexity by displaying the same activity as EPL001 across multiple mammalian systems. Thus, EPL030 suppressed human prostate cancer cells in vitro more than EPL001 in two laboratories and the proliferation of rat bone marrow cells in vitro in a third.

Sequence	Effect on bone marrow cells in culture [1]	GH, percentage difference between After and Before [2]	LH, percentage difference between After and Before [2]	PRL, percentage difference between After and Before [2]	GH, After [2]	LH, After [2]	PRL, After [2]	Tumour growth delay compared to controls ([3]; 100 mg/kg/day i.p., n = 8)	Tumour growth at termination compared with PBS-only controls ([3]; 100 mg/kg/day i.p., n = 8, ns)	Max % weight loss [3]	Median RTV2 [3]	Growth delay [3]	Max % weight loss [4]	Median RTV2 [4]	Fecundity (number of eggs), cumulative totals vs untreated controls [5]	Lifespan, average vs untreated controls [5]	Growth delay ([4]; EPL001 versus EPL030)
KLKMNGKNIEPVFT [EPL030, …, scrambled EPL001 control]	pro-apoptotic	+43.8%	+7.4%	−23.8%	7.82 ± 0.80 ng/mL	12.89 ± 3.78 ng/mL	107.03 ± 18.92 ng/mL	no statistically significant tumour growth delay	−20.2%	2.4%	3.6 days	0.1 days	1.2%	7.3 days	−64%	+23%	–
MKPLTGKVKEFNNI [EPL001, 14mer master test peptide …; ovine provenance]	antiproliferative	+25.4%	+13.4%	−28.5%	3.41 ± 0.63 ng/mL	6.48 ± 0.90 ng/mL	95.14 ± 21.62 ng/mL	no statistically significant tumour growth delay	–	0%	4.6 days	1.1 days	3.6%	7.7 days	+43%	+18%	0.4 days

Source: PMC9714824, “Hexapeptides from mammalian inhibitory hormone hunt activate and inactivate nematode reproduction” (PLOS ONE, 2022)
